From patent US20060079453A1, “Hla binding peptides and their uses” (priority 2002, published 2006)
Where two headings read alike, the source gives them in different places. No end group written: not given here.

What was measured:
Assay in all cases: biochemical
Assay type in all cases: binding
HLA-DR DRB1*0401 (DR4) = HLA-DR DRB1*0401 (DR4) (Homo sapiens, UniProt P01903+P01911, A100K/A169T/F76Y/I96L/K127E/L162R/M171V/N62H/P40V/Q125Y/R42H/S133A/S149N/S66Y/V115G/V209L/W38E)
HLA-DR DRB1*0101 (DR1) = HLA-DR DRB1*0101 (DR1) (Homo sapiens, UniProt P01903+P01911, A100R/D57E/F55L/F60I/F76Y/I96L/L162R/M171V/P40L/Q125E/R42F/V115G/Y59C)
HLA-DR DRB1*0701 (DR7) = HLA-DR DRB1*0701 (DR7) (Homo sapiens, UniProt P01903+P01911, A100R/A102G/A103Q/D57E/D86V/E43K/F76Y/K127E/L162R/M171V/P40G/Q125H/Q99D/R33Q/R42Y/R54Q/S133A/S66F/T210M/V115G/Y107V/Y59L/Y89S); details: DRB1 *0701

| Compound | IC50 (HLA-DR DRB1*0401 (DR4); DRB1 *0401) [nM] | IC50 (HLA-DR DRB1*0101 (DR1); DRB1 *0101) [nM] | also measured |
| --- | --- | --- | --- |
| C[C@H](N)C(=O)N[C@@H](C)C(=O)N[C@@H](C)C(=O)N[C@@H](C)C(=O)N[C@@H](C)C(=O)N[C@@H](C)C(=O)N[C@@H](C)C(=O)N[C@@H](C)C(=O)N[C@@H](C)C(=O)N[C@@H](C)C(=O)N[C@@H](C)C(=O)N[C@@H](C)C(=O)N[C@@H](CC(N)=O)C(=O)O | 500 | ≥ 50000 |  |
| C[C@H](N)C(=O)N[C@@H](C)C(=O)N[C@@H](C)C(=O)N[C@@H](C)C(=O)N[C@@H](C)C(=O)N[C@@H](C)C(=O)N[C@@H](C)C(=O)N[C@@H](C)C(=O)N[C@@H](C)C(=O)N[C@@H](C)C(=O)N[C@@H](C)C(=O)N[C@@H](CC(N)=O)C(=O)N[C@@H](C)C(=O)O | 1000 | ≥ 50000 |  |
| C[C@H](N)C(=O)N[C@@H](CO)C(=O)N[C@@H](C)C(=O)N[C@@H](C)C(=O)N[C@@H](C)C(=O)N[C@@H](C)C(=O)N[C@@H](C)C(=O)N[C@@H](C)C(=O)N[C@@H](C)C(=O)N[C@@H](C)C(=O)N[C@@H](C)C(=O)N[C@@H](C)C(=O)N[C@@H](C)C(=O)O |  | ≥ 50000 |  |
| CC(C)C[C@H](NC(=O)[C@H](CCCCN)NC(=O)[C@H](C)NC(=O)[C@@H](NC(=O)[C@H](CCCCN)NC(=O)[C@H](CCCNC(=N)N)NC(=O)[C@H](CO)NC(=O)[C@H](CC(C)C)NC(=O)[C@H](C)NC(=O)[C@H](C)NC(=O)[C@H](CCC(N)=O)NC(=O)[C@H](Cc1ccccc1)NC(=O)[C@H](CCC(=O)O)NC(=O)[C@H](CO)NC(=O)[C@@H](N)CCC(=O)O)C(C)C)C(=O)O | 579 |  |  |
| C[C@H](NC(=O)[C@H](C)NC(=O)[C@H](C)NC(=O)[C@H](C)NC(=O)[C@H](C)NC(=O)[C@H](C)NC(=O)[C@H](C)NC(=O)[C@H](C)NC(=O)[C@H](C)NC(=O)[C@H](C)NC(=O)[C@H](C)NC(=O)[C@H](C)NC(=O)[C@@H](N)Cc1ccccc1)C(=O)O | 200 |  |  |
| CC[C@H](C)[C@H](N)C(=O)NCC(=O)N[C@@H](Cc1c[nH]cn1)C(=O)N[C@@H](CC(C)C)C(=O)N[C@@H](Cc1ccc(O)cc1)C(=O)N[C@H](C(=O)N[C@@H](Cc1ccccc1)C(=O)N[C@@H](C)C(=O)N[C@H](C(=O)N[C@@H](CS)C(=O)N[C@@H](CC(C)C)C(=O)NCC(=O)N[C@@H](CC(C)C)C(=O)N[C@@H](CO)C(=O)N[C@@H](Cc1ccc(O)cc1)C(=O)N[C@@H](CC(=O)O)C(=O)NCC(=O)N[C@@H](CC(C)C)C(=O)O)[C@@H](C)O)[C@@H](C)CC | > 816 |  |  |
| CC[C@H](C)[C@H](NC(=O)[C@@H](NC(=O)[C@@H]1CCCN1C(=O)[C@H](Cc1ccccc1)NC(=O)[C@H](Cc1ccccc1)NC(=O)[C@H](Cc1ccc(O)cc1)NC(=O)[C@H](CCC(N)=O)NC(=O)[C@H](Cc1c[nH]c2ccccc12)NC(=O)[C@H](CC(N)=O)NC(=O)CNC(=O)[C@@H](N)C(C)C)C(C)C)C(=O)N[C@@H](Cc1ccccc1)C(=O)N[C@@H](CO)C(=O)N[C@@H](CCCCN)C(=O)N[C@@H](C)C(=O)O | 4.1 | 37 | IC50 (HLA-DR DRB1*0701 (DR7)): 100 nM |
| (43)AADFGIFIDFHA |  |  | IC50 (HLA-DR DRB1*0401 (DR4); read-out: DRB1 *0401): 235 nM |
| (43)AAIGFFFFKKGIA |  |  | IC50 (HLA-DR DRB1*0401 (DR4); read-out: DRB1 *0401): 258 nM |
| (43)AAIGGIFIFKKDA |  |  | IC50 (HLA-DR DRB1*0401 (DR4); read-out: DRB1 *0401): 800 nM |
| (46)AAKTAAAFA |  |  | IC50 (HLA-DR DRB1*0101 (DR1); read-out: DRB1 *0101): 5000 nM |
| (52)AAAATKAAAA |  |  | IC50 (HLA-DR DRB1*0101 (DR1); read-out: DRB1 *0101): 2000 nM |
| AAAAASAAAAAAA | 235 | ≥ 50000 |  |
| AAAKAAAAAAAAF | > 348 | > 1670 |  |
| AAAKAAAAAAAFA |  | ≥ 50000 |  |
| AAAKAAAAAAFAA | 235 |  |  |
| AAAKAAAAFAAAA |  | ≥ 50000 |  |
| AAANAAAAAAAAA |  |  | IC50 (HLA-DR DRB1*0101 (DR1)): ≥ 50000 nM |
| AADDDDDDDDDDA |  | ≥ 50000 |  |
| AAEAAAATAKAAA |  | 2500 |  |
| AAFFFFFGGGGGA | 800 | ≥ 50000 |  |
| AAFIFIGGGKIKA | 195 | ≥ 50000 |  |
| AAKAAAAAAA(10)AA |  |  | IC50 (HLA-DR DRB1*0401 (DR4); read-out: DRB1 *0401): > 889 nM |
| AAKGIKIGFGIFA | 471 | ≥ 50000 |  |
| AAKIFIGFFIDGA | 200 |  |  |
